According to ChEMBL document CHEMBL6092167, “Phosphorylation as an Effective Tool to Improve Stability and Reduce Toxicity of Antimicrobial Peptides” (J Med Chem, 2024):
≈ marks a conversion by molar mass, not a printed value. Calls of active or inactive are those of the source. The calls are words filed in the database; no cut-off is given here. Non-standard residues stand in square brackets, D forms with d. Residues, ends and D or L forms follow the SMILES beside them. Bip = N[C@@H](Cc1ccc(-c2ccccc2)cc1)C(=O)O; pY = N[C@@H](Cc1ccc(OP(=O)(O)O)cc1)C(=O)O; 2Nal = N[C@@H](Cc1ccc2ccccc2c1)C(=O)O

How the values were obtained:
Staphylococcus aureus [1] = assay: Antibacterial activity against methicillin resistant Staphylococcus aureus 48 incubated for 18 to 24 hrs by broth microdilution method; assay type: functional; details: time 18-24 hrs
Staphylococcus aureus [2] = assay: Antibiofilm activity against Staphylococcus aureus ATCC 25923 assessed as eradication of preformed biofilms at 4 times MIC incubated for 24 hrs by crystal violet staining based assay; assay type: functional, organism-based
Pseudomonas aeruginosa [3] = assay: Antibacterial activity against Pseudomonas aeruginosa ATCC 27853 incubated for 18 to 24 hrs by broth microdilution method; assay type: functional; details: time 18-24 hrs
Staphylococcus aureus [4] = assay: Antibacterial activity against Staphylococcus aureus ATCC 25923 incubated for 18 to 24 hrs by broth microdilution method; assay type: functional; details: time 18-24 hrs
Escherichia coli [5] = assay: Antibacterial activity against Escherichia coli 850 incubated for 18 to 24 hrs by broth microdilution method; assay type: functional; details: time 18-24 hrs
Staphylococcus aureus [6] = assay: Antibacterial activity against methicillin resistant Staphylococcus aureus ATCC 33591 incubated for 18 to 24 hrs by broth microdilution method; assay type: functional; details: time 18-24 hrs
Staphylococcus aureus [7] = assay: Antibacterial activity against Staphylococcus aureus 794 incubated for 18 to 24 hrs by broth microdilution method; assay type: functional; details: time 18-24 hrs
Staphylococcus aureus [8] = assay: Bactericidal activity against Staphylococcus aureus ATCC 25923 at 2 times MIC incubated for 24 hrs by time kill assay; assay type: functional
Escherichia coli [9] = assay: Antibacterial activity against Escherichia coli ATCC 25922 incubated for 18 to 24 hrs by broth microdilution method; assay type: functional; details: time 18-24 hrs
Escherichia coli [10] = assay: Antibacterial activity against Escherichia coli 780 incubated for 18 to 24 hrs by broth microdilution method; assay type: functional; details: time 18-24 hrs
Pseudomonas aeruginosa [11] = assay: Antibacterial activity against Pseudomonas aeruginosa 119 incubated for 18 to 24 hrs by broth microdilution method; assay type: functional; details: time 18-24 hrs
Klebsiella pneumoniae [12] = assay: Antibacterial activity against Klebsiella pneumoniae ATCC 700603 incubated for 18 to 24 hrs by broth microdilution method; assay type: functional; details: time 18-24 hrs
Bacillus subtilis = assay: Antibacterial activity against Bacillus subtilis ATCC 23857 incubated for 18 to 24 hrs by broth microdilution method; assay type: functional; details: time 18-24 hrs
Acinetobacter baumannii = assay: Antibacterial activity against Acinetobacter baumannii ATCC 19606 incubated for 18 to 24 hrs by broth microdilution method; assay type: functional; details: time 18-24 hrs
Staphylococcus aureus [13] = assay: Inhibition of biofilm formation in Staphylococcus aureus ATCC 25923 at 2 times MIC incubated for 24 hrs by crystal violet staining based assay; assay type: functional, organism-based
Staphylococcus aureus [14] = assay: Antibacterial activity against Staphylococcus aureus ATCC 25923 infected in BALB/c mouse systemic infection model assessed as reduction in bacterial load in lung at 1.09 mg/kg, ip pre-infected for 2 hrs followed by compound addition and measured after 8 hrs postinfection; assay type: functional, organism-based; details: time 6.0 hrs
Staphylococcus aureus [15] = assay: Antibacterial activity against Staphylococcus aureus ATCC 25923 infected in BALB/c mouse systemic infection model assessed as reduction in bacterial load in spleen at 1.09 mg/kg, ip pre-infected for 2 hrs followed by compound addition and measured after 8 hrs postinfection; assay type: functional, organism-based; details: time 6.0 hrs
Staphylococcus aureus [16] = assay: Antibacterial activity against Staphylococcus aureus ATCC 25923 infected in BALB/c mouse systemic infection model assessed as improved alveoli dilation at 1.09 mg/kg, ip pre-infected for 2 hrs followed by compound addition and measured after 8 hrs postinfection; assay type: functional, organism-based; details: time 6.0 hrs
Staphylococcus aureus [17] = assay: Antibacterial activity against Staphylococcus aureus ATCC 25923 infected in BALB/c mouse systemic infection model assessed as reduction in bacterial load in kidney at 1.09 mg/kg, ip pre-infected for 2 hrs followed by compound addition and measured after 8 hrs postinfection; assay type: functional, organism-based; details: time 6.0 hrs
Staphylococcus aureus [18] = assay: Antibacterial activity against Staphylococcus aureus ATCC 25923 infected in BALB/c mouse systemic infection model assessed as reduction in tissue hemorrhage at 1.09 mg/kg, ip pre-infected for 2 hrs followed by compound addition and measured after 8 hrs postinfection; assay type: functional, organism-based; details: time 6.0 hrs
Staphylococcus aureus [19] = assay: Antibacterial activity against Staphylococcus aureus ATCC 25923 infected in BALB/c mouse systemic infection model assessed as reduction in inflammatory response in lung tissue at 1.09 mg/kg, ip pre-infected for 2 hrs followed by compound addition and measured after 8 hrs postinfection; assay type: functional, organism-based; details: time 6.0 hrs
Staphylococcus aureus [20] = assay: Antibacterial activity against Staphylococcus aureus ATCC 25923 infected in BALB/c mouse systemic infection model assessed as reduction in bacterial load in liver at 1.09 mg/kg, ip pre-infected for 2 hrs followed by compound addition and measured after 8 hrs postinfection; assay type: functional, organism-based; details: time 6.0 hrs
Klebsiella pneumoniae [21] = assay: Drug resistance development in Klebsiella pneumoniae ATCC 700603 assessed as fold increase in MIC measured after 7 passage; assay type: functional
[22] = Cytotoxicity against HEK293T cells incubated for 1 hr by fluorescence based microplate reader assay; assay type: toxicity, cell-based, HEK-293T; details: human
[23] = Hemolytic activity in mouse erythrocyte incubated for 1 hr by microplate reader assay; assay type: toxicity, cell-based

Molecule | MIC (Staphylococcus aureus [1]) [µM] | MIC (Pseudomonas aeruginosa [3]) [µM] | MIC (Staphylococcus aureus [4]) [µM] | MIC (Escherichia coli [5]) [µM] | MIC (Staphylococcus aureus [6]) [µM] | MIC (Staphylococcus aureus [7]) [µM] | MIC (Escherichia coli [9]) [µM] | MIC (Escherichia coli [10]) [µM] | MIC (Pseudomonas aeruginosa [11]) [µM] | MIC (Klebsiella pneumoniae [12]) [µM] | MIC (Bacillus subtilis) [µM] | MIC (Acinetobacter baumannii) [µM] | CC50 at 1 h [22] [µM] | MHC [23] [µM] | further results
CN[C@H](CC(C)C)C(=O)N[C@H]1C(=O)N[C@@H](CC(N)=O)C(=O)N[C@H]2C(=O)N[C@H]3C(=O)N[C@H](C(=O)N[C@H](C(=O)O)c4cc(O)cc(O)c4-c4cc3ccc4O)[C@H](O)c3ccc(c(Cl)c3)Oc3cc2cc(c3O[C@@H]2O[C@H](CO)[C@@H](O)[C@H](O)[C@H]2O[C@H]2C[C@](C)(N)[C@H](O)[C@H](C)O2)Oc2ccc(cc2Cl)[C@H]1O [VANCOMYCIN] | < 1 | > 128 | < 1 | 128 (≈ 186 µg/mL) | < 1 | 128 (≈ 186 µg/mL) | 128 (≈ 186 µg/mL) | 128 (≈ 186 µg/mL) | > 128 | > 128 | < 1 | 64 (≈ 92.8 µg/mL) |  |  | Activity (Staphylococcus aureus [2]): Active; Showed Poor Efficacy; Activity (Staphylococcus aureus [8]): 100%; inhibition (Staphylococcus aureus [13]): Active
CNC(C)[C@@H]1CC[C@@H](N)[C@@H](O[C@H]2[C@H](O)[C@@H](O[C@H]3OC[C@](C)(O)[C@H](NC)[C@H]3O)[C@H](N)C[C@@H]2N)O1.CN[C@@H]1[C@@H](O)[C@@H](O[C@@H]2[C@@H](O)[C@H](O[C@H]3O[C@H](C(C)N)CC[C@H]3N)[C@@H](N)C[C@H]2N)OC[C@]1(C)O.CN[C@@H]1[C@@H](O)[C@@H](O[C@@H]2[C@@H](O)[C@H](O[C@H]3O[C@H](CN)CC[C@H]3N)[C@@H](N)C[C@H]2N)OC[C@]1(C)O (stereo not given in full) | 64 | < 1 | < 1 |  | 32 | 64 |  |  | > 128 | 8 | < 1 | 8 |  |  | Activity (Staphylococcus aureus [14]): Active; Activity (Staphylococcus aureus [15]): Active; Activity (Staphylococcus aureus [16]): inactive; Activity (Staphylococcus aureus [17]): Active; Activity (Staphylococcus aureus [18]): Active; Activity (Staphylococcus aureus [19]): Active; Activity (Staphylococcus aureus [20]): Active
NC[C@H]1O[C@H](O[C@H]2[C@H](O)[C@@H](O[C@H]3O[C@H](CO)[C@@H](O)[C@H](N)[C@H]3O)[C@H](N)C[C@@H]2N)[C@H](O)[C@@H](O)[C@@H]1O [KANAMYCIN] | > 128 | > 128 | < 1 | > 128 | > 128 | 64 (≈ 31 µg/mL) | 8 (≈ 3.88 µg/mL) | 32 (≈ 15.5 µg/mL) | 64 (≈ 31 µg/mL) | 32 (≈ 15.5 µg/mL) | < 1 | 8 (≈ 3.88 µg/mL) |  |  | fold change (FC) (Klebsiella pneumoniae [21]): 128
CC(C)C[C@H](NC(=O)[C@H](CC(C)C)NC(=O)[C@@H](NC(=O)[C@H](CCCCN)NC(=O)[C@H](Cc1ccc(-c2ccccc2)cc1)NC(=O)[C@H](CCCNC(=N)N)NC(=O)[C@H](CCCCN)NC(=O)[C@H](CC(C)C)NC(=O)[C@H](CC(C)C)NC(=O)CN)[C@@H](C)O)C(N)=O (H-GLLKR[Bip]KTLL-NH2) | 8 (≈ 10.1 µg/mL) | 4 (≈ 5.05 µg/mL) | 16 (≈ 20.2 µg/mL) | 8 (≈ 10.1 µg/mL) | 8 (≈ 10.1 µg/mL) | 8 (≈ 10.1 µg/mL) | 8 (≈ 10.1 µg/mL) | 8 (≈ 10.1 µg/mL) | 16 (≈ 20.2 µg/mL) | 8 (≈ 10.1 µg/mL) | 4 (≈ 5.05 µg/mL) | 16 (≈ 20.2 µg/mL) | 127 | 145.56 | 
H-GLWKRLKTLL-NH2 | 8 | 4 | 16 | 8 | 8 | 8 | 8 | 8 | 16 | 8 | 4 | 32 | > 128 | > 256 | 
CC(C)C[C@H](NC(=O)[C@H](CC(C)C)NC(=O)[C@H](Cc1ccc(OP(=O)(O)O)cc1)NC(=O)[C@H](CCCCN)NC(=O)[C@H](CC(C)C)NC(=O)[C@H](CCCNC(=N)N)NC(=O)[C@H](CCCCN)NC(=O)[C@H](Cc1ccc2ccccc2c1)NC(=O)[C@H](CC(C)C)NC(=O)CN)C(N)=O (H-GL[2Nal]KRLK[pY]LL-NH2) | 8 (≈ 11 µg/mL) | 16 (≈ 22.1 µg/mL) | 8 (≈ 11 µg/mL) | 8 (≈ 11 µg/mL) | 8 (≈ 11 µg/mL) | 8 (≈ 11 µg/mL) | 8 (≈ 11 µg/mL) | 16 (≈ 22.1 µg/mL) | 32 (≈ 44.1 µg/mL) | 8 (≈ 11 µg/mL) | 8 (≈ 11 µg/mL) | 8 (≈ 11 µg/mL) | 128 | 164.57 | 
H-GLLKRWKYLL-NH2 | 32 | 8 | 64 | 16 | 32 | 16 | 16 | 8 | 16 | 64 | 4 | 64 | > 128 | > 256 | 
CC(C)C[C@H](NC(=O)[C@H](CC(C)C)NC(=O)[C@H](Cc1ccc(O)cc1)NC(=O)[C@H](CCCCN)NC(=O)[C@H](Cc1ccc(-c2ccccc2)cc1)NC(=O)[C@H](CCCNC(=N)N)NC(=O)[C@H](CCCCN)NC(=O)[C@H](CC(C)C)NC(=O)[C@H](CC(C)C)NC(=O)CN)C(N)=O (H-GLLKR[Bip]KYLL-NH2) | 8 (≈ 10.6 µg/mL) | 8 (≈ 10.6 µg/mL) | 8 (≈ 10.6 µg/mL) | 8 (≈ 10.6 µg/mL) | 8 (≈ 10.6 µg/mL) | 8 (≈ 10.6 µg/mL) | 8 (≈ 10.6 µg/mL) | 8 (≈ 10.6 µg/mL) | 8 (≈ 10.6 µg/mL) | 8 (≈ 10.6 µg/mL) | 4 (≈ 5.3 µg/mL) | 16 (≈ 21.2 µg/mL) | 82.3 | 99.53 | 
CC(C)C[C@H](NC(=O)[C@H](CC(C)C)NC(=O)[C@@H](NC(=O)[C@H](CCCCN)NC(=O)[C@H](Cc1ccc2ccccc2c1)NC(=O)[C@H](CCCNC(=N)N)NC(=O)[C@H](CCCCN)NC(=O)[C@H](CC(C)C)NC(=O)[C@H](CC(C)C)NC(=O)CN)[C@@H](C)O)C(N)=O (H-GLLKR[2Nal]KTLL-NH2) | 16 (≈ 19.8 µg/mL) | 4 (≈ 4.95 µg/mL) | 16 (≈ 19.8 µg/mL) | 16 (≈ 19.8 µg/mL) | 16 (≈ 19.8 µg/mL) | 8 (≈ 9.9 µg/mL) | 16 (≈ 19.8 µg/mL) | 8 (≈ 9.9 µg/mL) | 16 (≈ 19.8 µg/mL) | 16 (≈ 19.8 µg/mL) | 4 (≈ 4.95 µg/mL) | 32 (≈ 39.6 µg/mL) | 177 | > 256 | 
CO[C@H]1/C=C/O[C@@]2(C)Oc3c(C)c(O)c4c(O)c(c(/C=N/N5CCN(C)CC5)c(O)c4c3C2=O)NC(=O)/C(C)=C\C=C\[C@H](C)[C@H](O)[C@@H](C)[C@@H](O)[C@@H](C)[C@H](OC(C)=O)[C@@H]1C [RIFAMPIN] |  | 32 (≈ 26.3 µg/mL) | < 1 |  |  |  | 8 (≈ 6.58 µg/mL) |  |  | 32 (≈ 26.3 µg/mL) | < 1 | 1 (≈ 0.823 µg/mL) |  |  | fold change (FC) (Klebsiella pneumoniae [21]): 128
